Assay results as given in patent US20260284009A1, “COMPOUNDS FOR NOS-RELATED CANCERS AND METHODS OF USE” (YISSUM RESEARCH DEVELOPMENT COMPANY OF THE HEBREW …, priority 2023, published 2026).

How the values were obtained:
SH-SY5Y-xenografted mice = experiment: Tumor volume in SH-SY5Y-xenografted mice; format: in vivo; conditions: 80 mg/kg 7-NI, after 1 month, vs control
Experimental: Data are presented as mean±SEM. Statistical significance was determined using a One-way ANOVA followed by Fisher's LSD multiple comparison post hoc test. **P<0.01.

SH-SY5Y cells [1] = experiment: Nitrite (Griess) assay in SH-SY5Y cells; format: cell-based, human; conditions: 7-NI
Experimental: (§1) Human neuroblastoma (“NB”) SH-SY5Y cells were obtained from the American Type Culture Collection (ATCC) and maintained in Dulbecco's modified Eagle's medium (DMEM) and Ham's F-12 (1:1) supplemented with 10% fetal bovine serum, 2 mM L-glutamine, and 100 U/ml penicillin-G/[…] streptomycin in the humidified atmosphere (37° C., 5% CO2). Cells were plated onto 25 cm^2 and 75 cm^2 at a density of […] respectively for Western blotting (WB) and 1×10^5 for immunofluorescence. The SH-SY5Y cells were treated with 100 μM 7-nitroindazole (7-NI) for 24 hr. This concentration was confirmed in the dose-response experiment (FIG. 1) using an MTT viability assay.
Released NO was measured with Griess assay Kit (Sigma-Aldrich, Cat. No. 23479) using the manufacturer's instructions.
SH-SY5Y cells were plated in 6 well plates, as well as on 22 mm^2 coverslips at a density of 6.0×10^4 cells/cm^2 and transfected with 20 nM nNOS siRNA (SEQ ID NO: 4) for 24 h, with the use of Lipofectamine RNAi MAX (56530, Invitrogen) according to the manufacturer's protocol. Then cells were washed with phosphate-buffered saline (PBS) and harvested for WB and fixed for immunofluorescence.

SH-SY5Y cells [2] = experiment: Immunofluorescent staining of Syp and 3-Ntyr in SH-SY5Y cells; format: cell-based, human; conditions: immunofluorescence, 100 μM 7-NI or 20 nM siRNA
Experimental: In FIGS. 5A-5C, for quantitative analysis each group consisted of three independent sets of experiments run in triplicate. Data are presented as mean±SEM. Statistical significance was determined using a One-way ANOVA followed by Fisher's LSD multiple comparison post hoc test. **P<0.01 and ***P<0.001.
FIG. 5A: Representative immunofluorescent images of SH-SY5Y cells stained for Syp and 3-Ntyr following administration of the control (“SH-SY5Y”), 100 μM 7-NI (“SH-SY5Y+7-NI”), or 20 nM siRNA (SEQ ID NO: 4) (“SH-SY5Y+si-nNOS”). The scale bar is 10 μm.
FIG. 5B: Quantitative analysis of fluorescent intensity of Syp for the experiments of FIG. 5A.
FIG. 5C: Quantitative analysis of fluorescent intensity of 3-Ntyr for the experiments of FIG. 5A.

SH-SY5Y cells [3] = experiment: Clonogenic survival of SH-SY5Y cells; format: cell-based, human; conditions: 100 μM 7-NI or 20 nM siRNA (SEQ ID NO: 4), n=4
Experimental: In FIGS. 3A-3B, for quantitative analysis data, all individual data series are presented as biological replicates (n=4) for all groups. Data are presented as mean±SEM. Statistical significance was determined using a One-way ANOVA followed by Fisher's LSD multiple comparison post hoc test. *P<0.05, **P<0.01, and ns=not significant.
FIG. 3A: Representative well images of clonogenic growth following administration of the control (“SH-SY5Y”), 0.1% DMSO (“SH-SY5Y+NC”), 100 μM 7-NI (“SH-SY5Y+7-NI”), or 20 nM siRNA (SEQ ID NO: 4) (“SH-SY5Y+si-nNOS”).
FIG. 3B: Quantitative analysis of clonogenic survival for the experiments of FIG. 3A.

SH-SY5Y cells [4] = experiment: NADPH-diaphorase activity in cell lysates of SH-SY5Y cells; format: cell-based, human; conditions: 100 μM 7-NI or 20 nM siRNA (SEQ ID NO: 4), absorbance at 585 nm normalized for total protein, n=3
Experimental: In FIGS. 2A-2C, for quantitative analysis absorbance at 585 nm was normalized for total protein. Data are expressed as the mean±SEM. Statistical significance was determined using a One-way ANOVA followed by Fisher's LSD multiple comparison post hoc test. *P<0.05 and **P<0.01.
FIG. 2A: Quantitative analysis of NADPH-diaphorase activity in cell lysates of SH-SY5Y cells following the administration of the control (“SH-SY5Y”) (n=3), 0.1% DMSO (“SH-SY5Y+NC”) (n=3), 100 μM 7-NI (“SH-SY5Y+7-NI”) (n=3), or 20 nM siRNA (SEQ ID NO: 4) (“SH-SY5Y+si-nNOS”) (n=3).
FIG. 2C: Representative images of cultured SH-SY5Y cells stained for NADPH-diaphorase activity.

SH-SY5Y cells [5] = experiment: NADPH-diaphorase activity assay (NOS activity) in SH-SY5Y cell lysates; format: cell-based, human; conditions: 100 μM 7-NI, 24 hr
Experimental: as §1
The NADPH-diaphorase activity assay was used to determine the NOS activity based on the NADPH-dependent reduction of nitro-blue tetrazolium salt (NBT) to visible formazan. SH-SYSY cells grown in six-well culture plates were lysed in 50 mM Tris-HCl buffer (pH 7.4), containing 0.1% Triton X-100, 2 mM EDTA, and a protease inhibitor cocktail (Sigma, St. Louis, MO). […] After a 15 min incubation period at 37° C., the production of formazan was measured spectrophotometrically at 585 nm. The data were expressed as absorbance units and normalized for the protein content of each sample. Protein concentration was measured by the bicinchoninic acid (BCA) protein assay using BSA as a standard. […]

U87-MG cells = experiment: Griess assay, nitrite and nitrate content; format: cell-based, human; conditions: L-NIL alone, compared to the control (summary statement)
Experimental: In a particular example, in vitro and in vivo experiments were performed using U87-MG cells and U87-MG-xenografted mice, respectively, as a glioblastoma model.

iNOS = iNOS expression level in U87-MG cells; format: cell-based, human; conditions: compared to the control treatment, not statistically significant (FIG. 14)
[6] = test system: U87-MG human glioblastoma cell line; experiment: 3-Ntyr levels in U87-MG cells after treatment; format: cell-based; conditions: compared to the control, not significant (FIGS. 12C-12D)

Structure (SMILES) | tumor volume (SH-SY5Y-xenografted mice) | nitrite content (Griess assay) (SH-SY5Y cells [1]) | 3-Ntyr expression levels (fluorescent intensity) (SH-SY5Y cells [2]) | Syp expression levels (fluorescent intensity) (SH-SY5Y cells [2]) | clonogenic survival (SH-SY5Y cells [3]) | NADPH-diaphorase activity (SH-SY5Y cells [4]) | NADPH diaphorase activity (NOS activity) (SH-SY5Y cells [5]) | total nitrate and nitrite content (U87-MG cells) | expression level of iNOS (iNOS; higher dose) | expression level of iNOS (iNOS; lower dose) | 3-Ntyr levels ([6]; higher dose) | 3-Ntyr levels ([6]; lower dose)
O=[N+]([O-])c1cccc2cn[nH]c12 [7-NI, 7-nitroindazole] | significantly smaller | dramatic reduction | significant decrease | significant decrease | significant decrease | significant decrease | significantly inhibited |  |  |  |  | 
CC(=N)NCCCC[C@H](N)C(=O)O [L-NIL, N^6-(1-iminoethyl)-L-lysine] |  |  |  |  |  |  |  | significantly reduced | unchanged | slightly elevated | reduced | slightly increased
